Results on 1 compound are retold here after patent US20240410877A1, “SYSTEMS AND METHODS FOR MIXED MULTIPLE CELL LINE SCREENING USING ENDOGENOUS SINGLE NUCLEOTIDE POLYMORPHISM (SNP)-BASED CELL LINE IDENTIFICATION” (University of Kentucky Research Foundation, priority 2023, published 2024).

Holding throughout (format): cell-based, human
One test concerns SK-Hep1. Nature of the test: Cell proliferation assay of single cell line. As to conditions: SK-Hep1, 1 μM, 30 h. How it is done: (§1) The liver cancer cell lines, Huh7, C3A, PLC/PRF/5, SNU449, SNU475 and SK-Hep1, were purchased from the American Type Culture Collection (ATCC). The cells were cultured in DMEM (ATCC®30-2002) containing 10% (v/v) Fetal Bovine Serum (FBS) (Sigma F0926) and grown in an incubator at 37° C. with 5% CO2. The halogenated diarylacetylene, 4-((2,6-difluorophenyl) ethynyl)-N,N-dimethylaniline (DEDA), was synthesized and characterized as previously described.^18,19
(§2) For proliferation assays of single cell line, cells were seeded in 12-well plates (2×10^5 cells per well) and incubated overnight. The following day, DEDA (1 μM solution in DMSO) was added to each well with DMSO alone as a control. Each experiment was performed in quadruplicate. After 30 h, cells were analyzed under a reverse microscope. Cell viability and number were analyzed using the Vi-Cell XR Cell Viability Analyzer (Beckman Coulter).

For another test, the system named is Huh7. Briefly: Cell proliferation assay of single cell line. The note with it: Huh7, 1 μM, 30 h. Here is the method: as §1, §2
A further test deals with SNU475. Briefly: Cell proliferation assay of single cell line. As to conditions: SNU475, 1 μM, 30 h. Here is the method:
as §1, §2

The test system of another test is SNU449. Nature of the test: Cell proliferation assay of single cell line. As to conditions: SNU449, 1 μM, 30 h. Here is the method:
as §1, §2

The test system of a further test is C3A. Nature of the test: Cell proliferation assay of single cell line. As to conditions: 1 μM, 30 h. How it is done:
as §1, §2

In a further test the test system is PLC/PRF/5. Briefly: Cell proliferation assay of single cell line. As to conditions: PLC/PRF/5, 1 μM, 30 h. How it is done:
as §1, §2

The next test deals with c-Myc. Briefly: Western blot of c-Myc expression in liver cancer cells. As to conditions: C3A cells, 1 μM DEDA vs DMSO. Here is the method:
Cells were grown in six-well plates and lysed in 0.5 mL/well lysis buffer (50 mM HEPES, 100 mM NaCl, 2 mM EDTA, 1% glycerol, 50 mM NaF, 1 mM Na3VO4, 1% Triton X-100, with protease inhibitors). Cell lysates were separated by a 10% SDS-PAGE gel and transferred to an Immobilon PVDF membrane. The protein levels of c-Myc and GAPDH (loading control) were analyzed using antibodies that recognize c-Myc (Epitomics, #1472-1) and GAPDH (GeneTex, #627408).

Consider `CN(C)c1ccc(C#Cc2c(F)cccc2F)cc1` [DEDA, 4-((2,6-difluorophenyl)ethynyl)-N,N-dimethylaniline], for which the “sensitivity in cell proliferation assay” value with SK-Hep1 was “resistant”; in the test on Huh7, “DEDA-sensitive”; in the test with SNU475 it was “resistant”; in the test with SNU449, “resistant”; with C3A it was “DEDA-sensitive”; in the test on PLC/PRF/5 it was “resistant”. Also, in the test with c-Myc, the c-Myc expression result is recorded as “inhibited c-Myc expression”.
